Reference: US20060252807A1, “Novel ortho-terphenyl inhibitors of p38 kinase and methods of treating inflammatory disorders” (Kalypsys, Inc., priority 2005, published 2006)

Target: T1, active p38 alpha enzyme (Upstate Biotechnology) (Homo sapiens, UniProt Q16539)
T1 construct: purchased Upstate Biotechnology
Assay: p38α biochemical assay (ATP turnover, luminescent detection, Cambrex PKlight)
Conditions: p38α biochemical assay, Table 1 Biological Activity
Procedure, shortened: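 p38α + MapkapK2 (whole protein substrate) + 1.4 uM ATP final; Tris/MOPS buffer with MgCl2, CaCl2, EGTA, EDTA, glycerol, β-ME, BSA; 2 h at 30C; luminescent detection of remaining ATP.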

T1 sequence (Q16539 whole entry): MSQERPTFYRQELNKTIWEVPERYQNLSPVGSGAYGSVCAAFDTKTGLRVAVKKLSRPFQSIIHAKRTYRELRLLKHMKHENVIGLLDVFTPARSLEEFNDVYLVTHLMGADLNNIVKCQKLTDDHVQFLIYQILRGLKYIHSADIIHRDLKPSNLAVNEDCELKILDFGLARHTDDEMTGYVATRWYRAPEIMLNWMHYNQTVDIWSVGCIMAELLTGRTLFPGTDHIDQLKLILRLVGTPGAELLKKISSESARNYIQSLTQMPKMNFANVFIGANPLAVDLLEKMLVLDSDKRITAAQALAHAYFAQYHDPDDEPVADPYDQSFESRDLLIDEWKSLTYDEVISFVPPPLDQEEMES

Row | SMILES | IC50 [nM]
1 | CC(=O)Oc1cccc(C(=O)NCc2onc(-c3ccc(F)cc3)c2-c2nc(C(=O)NC(C)C)cs2)c1 [Example 690] | > 1000
2 | CC(=O)Oc1ccccc1C(=O)NCc1onc(-c2ccc(F)cc2)c1-c1nc(C(=O)NC(C)C)cs1 [Example 691] | ≤ 1000
3 | CC(C)NC(=O)c1csc(-c2c(-c3ccc(F)cc3)noc2CNC(=O)Cc2ccc3c(c2)OCO3)n1 [Example 692] | > 1000
4 | CCCOc1ccc(C(=O)NCc2onc(-c3ccc(F)cc3)c2-c2nc(C(=O)NC(C)C)cs2)cc1 [Example 693] | > 1000
5 | CC(C)NC(=O)c1csc(-c2c(-c3ccc(F)cc3)noc2CNC(=O)c2ccc(OC(C)C)cc2)n1 [Example 694] | > 1000
6 | Cc1cccc([N+](=O)[O-])c1C(=O)NCc1onc(-c2ccc(F)cc2)c1-c1nc(C(=O)NC(C)C)cs1 [Example 695] | > 1000
7 | Cc1cccc(C(=O)NCc2onc(-c3ccc(F)cc3)c2-c2nc(C(=O)NC(C)C)cs2)c1[N+](=O)[O-] [Example 696] | > 1000
8 | Cc1ccc([N+](=O)[O-])c(C(=O)NCc2onc(-c3ccc(F)cc3)c2-c2nc(C(=O)NC(C)C)cs2)c1 [Example 697] | ≤ 1000
9 | Cc1c(C(=O)NCc2onc(-c3ccc(F)cc3)c2-c2nc(C(=O)NC(C)C)cs2)cccc1[N+](=O)[O-] [Example 698] | > 1000
10 | COc1ccc(OC)c(C(=O)NCc2onc(-c3ccc(F)cc3)c2-c2nc(C(=O)NC(C)C)cs2)c1 [Example 699] | > 1000
11 | COc1ccc(C(=O)NCc2onc(-c3ccc(F)cc3)c2-c2nc(C(=O)NC(C)C)cs2)c(OC)c1 [Example 700] | > 1000
12 | COc1cccc(OC)c1C(=O)NCc1onc(-c2ccc(F)cc2)c1-c1nc(C(=O)NC(C)C)cs1 [Example 701] | > 1000
13 | COc1cc(OC)cc(C(=O)NCc2onc(-c3ccc(F)cc3)c2-c2nc(C(=O)NC(C)C)cs2)c1 [Example 702] | > 1000
14 | COc1cccc(C(=O)NCc2onc(-c3ccc(F)cc3)c2-c2nc(C(=O)NC(C)C)cs2)c1OC [Example 703] | > 1000
15 | Cc1ccc(SCC(=O)NCc2onc(-c3ccc(F)cc3)c2-c2nc(C(=O)NC(C)C)cs2)cc1 [Example 704] | > 1000
16 | CC(C)NC(=O)c1csc(-c2c(-c3ccc(F)cc3)noc2CNC(=O)/C=C/c2ccc(Cl)cc2)n1 [Example 705] | > 1000
17 | CC(C)NC(=O)c1csc(-c2c(-c3ccc(F)cc3)noc2CNC(=O)/C=C/c2ccccc2Cl)n1 [Example 706] | > 1000
18 | CC(C)NC(=O)c1csc(-c2c(-c3ccc(F)cc3)noc2CNC(=O)c2ccc([N+](=O)[O-])c(O)c2)n1 [Example 707] | > 1000
19 | CC(C)NC(=O)c1csc(-c2c(-c3ccc(F)cc3)noc2CNC(=O)c2cc(O)ccc2[N+](=O)[O-])n1 [Example 708] | > 1000
20 | CC(C)NC(=O)c1csc(-c2c(-c3ccc(F)cc3)noc2CNC(=O)c2cc([N+](=O)[O-])ccc2O)n1 [Example 709] | > 1000
21 | CC(C)NC(=O)c1csc(-c2c(-c3ccc(F)cc3)noc2CNC(=O)c2cc([N+](=O)[O-])ccc2F)n1 [Example 710] | > 1000
22 | CC(C)NC(=O)c1csc(-c2c(-c3ccc(F)cc3)noc2CNC(=O)c2cc(F)ccc2[N+](=O)[O-])n1 [Example 711] | > 1000
23 | CC(C)NC(=O)c1csc(-c2c(-c3ccc(F)cc3)noc2CNC(=O)c2ccc(F)c([N+](=O)[O-])c2)n1 [Example 712] | > 1000

Row | SMILES | IC50 [nM]
24 | COc1ccc(Cl)cc1C(=O)NCc1onc(-c2ccc(F)cc2)c1-c1nc(C(=O)NC(C)C)cs1 [Example 713] | > 1000
25 | COc1cc(Cl)ccc1C(=O)NCc1onc(-c2ccc(F)cc2)c1-c1nc(C(=O)NC(C)C)cs1 [Example 714] | > 1000
26 | CC(C)NC(=O)c1csc(-c2c(-c3ccc(F)cc3)noc2CNC(=O)Cc2ccc(O)c(Cl)c2)n1 [Example 715] | > 1000
27 | COc1cc(C(=O)NCc2onc(-c3ccc(F)cc3)c2-c2nc(C(=O)NC(C)C)cs2)cc(Cl)n1 [Example 716] | > 1000
28 | CC(C)NC(=O)c1csc(-c2c(-c3ccc(F)cc3)noc2CNC(C=O)c2ccc3cc(O)ccc3c2)n1 (centres unmarked) [Example 717] | > 1000
29 | CC(C)NC(=O)c1csc(-c2c(-c3ccc(F)cc3)noc2CNC(=O)c2c(O)ccc3ccccc23)n1 [Example 718] | > 1000
30 | CC(C)NC(=O)c1csc(-c2c(-c3ccc(F)cc3)noc2CNC(=O)c2cc3ccccc3cc2O)n1 [Example 719] | > 1000
31 | CC(C)NC(=O)c1csc(-c2c(-c3ccc(F)cc3)noc2CNC(=O)c2ccc3ccccc3c2O)n1 [Example 720] | > 1000
32 | CC(C)NC(=O)c1csc(-c2c(-c3ccc(F)cc3)noc2CNC(=O)c2ccc3cccc(O)c3n2)n1 [Example 721] | > 1000
33 | CC(C)NC(=O)c1csc(-c2c(-c3ccc(F)cc3)noc2CNC(=O)C(C)NC(=O)OC(C)(C)C)n1 (centres unmarked) [Example 722] | > 1000
34 | CC(C)NC(=O)c1csc(-c2c(-c3ccc(F)cc3)noc2CNC(=O)C(C)NC(=O)OC(C)(C)C)n1 (centres unmarked) [Example 723] | > 1000
35 | CC(C)NC(=O)c1csc(-c2c(-c3ccc(F)cc3)noc2CNC(=O)c2ccccc2C(F)(F)F)n1 [Example 724] | > 1000
36 | CC(C)NC(=O)c1csc(-c2c(-c3ccc(F)cc3)noc2CNC(=O)CCc2nc3ccccc3[nH]2)n1 [Example 725] | > 1000
37 | CC(C)NC(=O)c1csc(-c2c(-c3ccc(F)cc3)noc2CNC(=O)c2cccc(Cl)c2Cl)n1 [Example 726] | > 1000
38 | CC(C)NC(=O)c1csc(-c2c(-c3ccc(F)cc3)noc2CNC(=O)c2ccc(Cl)cc2Cl)n1 [Example 727] | > 1000
39 | CC(C)NC(=O)c1csc(-c2c(-c3ccc(F)cc3)noc2CNC(=O)c2cc(Cl)ccc2Cl)n1 [Example 728] | > 1000
40 | CC(C)NC(=O)c1csc(-c2c(-c3ccc(F)cc3)noc2CNC(=O)c2cc(F)c(F)c(O)c2F)n1 [Example 729] | > 1000
41 | CC(C)NC(=O)c1csc(-c2c(-c3ccc(F)cc3)noc2CNC(=O)/C=C/c2ccc3c(c2)OCO3)n1 [Example 730] | > 1000
42 | Cc1ccc(C(=O)CCC(=O)NCc2onc(-c3ccc(F)cc3)c2-c2nc(C(=O)NC(C)C)cs2)cc1 [Example 731] | > 1000
43 | CCCCCc1ccc(C(=O)NCc2onc(-c3ccc(F)cc3)c2-c2nc(C(=O)NC(C)C)cs2)cc1 [Example 732] | > 1000
44 | CC(C)NC(=O)c1csc(-c2c(-c3ccc(F)cc3)noc2CNC(=O)c2cc(F)c(F)cc2Cl)n1 [Example 733] | > 1000
45 | CC(C)NC(=O)c1csc(-c2c(-c3ccc(F)cc3)noc2CNC(=O)c2cc(F)c(Cl)cc2F)n1 [Example 734] | > 1000
46 | CCN(CC)c1ccc(C(=O)NCc2onc(-c3ccc(F)cc3)c2-c2nc(C(=O)NC(C)C)cs2)cc1 [Example 735] | > 1000

Row | SMILES | IC50 [nM]
47 | COc1cc(/C=C/C(=O)NCc2onc(-c3ccc(F)cc3)c2-c2nc(C(=O)NC(C)C)cs2)ccc1O [Example 736] | > 1000
48 | COc1ccc(/C=C/C(=O)NCc2onc(-c3ccc(F)cc3)c2-c2nc(C(=O)NC(C)C)cs2)cc1O [Example 737] | > 1000
49 | CCCCOc1ccc(C(=O)NCc2onc(-c3ccc(F)cc3)c2-c2nc(C(=O)NC(C)C)cs2)cc1 [Example 738] | > 1000
50 | CC(C)NC(=O)c1csc(-c2c(-c3ccc(F)cc3)noc2CNC(=O)c2cc3cc(Cl)ccc3o2)n1 [Example 739] | > 1000
51 | COc1ccc([N+](=O)[O-])c(C(=O)NCc2onc(-c3ccc(F)cc3)c2-c2nc(C(=O)NC(C)C)cs2)c1 [Example 740] | > 1000
52 | COc1cc(C(=O)NCc2onc(-c3ccc(F)cc3)c2-c2nc(C(=O)NC(C)C)cs2)cc(OC)c1O [Example 741] | > 1000
53 | CC(C)NC(=O)c1csc(-c2c(-c3ccc(F)cc3)noc2CNC(=O)c2ccccc2-c2ccccc2)n1 [Example 742] | > 1000
54 | CC(C)NC(=O)c1csc(-c2c(-c3ccc(F)cc3)noc2CNC(=O)c2cccc(Br)c2)n1 [Example 743] | > 1000
55 | CC(C)NC(=O)c1csc(-c2c(-c3ccc(F)cc3)noc2CNC(=O)c2ccc(Br)cc2)n1 [Example 744] | > 1000
56 | CC(C)NC(=O)c1csc(-c2c(-c3ccc(F)cc3)noc2CNC(=O)c2cccc(Cl)c2[N+](=O)[O-])n1 [Example 745] | > 1000
57 | CC(C)NC(=O)c1csc(-c2c(-c3ccc(F)cc3)noc2CNC(=O)c2cc([N+](=O)[O-])ccc2Cl)n1 [Example 746] | > 1000
58 | CC(C)NC(=O)c1csc(-c2c(-c3ccc(F)cc3)noc2CNC(=O)c2ccc([N+](=O)[O-])cc2Cl)n1 [Example 747] | ≤ 1000
59 | CC(C)NC(=O)c1csc(-c2c(-c3ccc(F)cc3)noc2CNC(=O)c2ccc(Cl)cc2[N+](=O)[O-])n1 [Example 748] | > 1000
60 | CC(C)NC(=O)c1csc(-c2c(-c3ccc(F)cc3)noc2CNC(=O)c2ccc(Cl)c([N+](=O)[O-])c2)n1 [Example 749] | > 1000
61 | CC(C)NC(=O)c1csc(-c2c(-c3ccc(F)cc3)noc2CNC(=O)c2cc(Cl)ccc2[N+](=O)[O-])n1 [Example 750] | > 1000
62 | CC(C)NC(=O)c1csc(-c2c(-c3ccc(F)cc3)noc2CNC(=O)c2cccc(Br)n2)n1 [Example 751] | > 1000
63 | CC(C)NC(=O)c1csc(-c2c(-c3ccc(F)cc3)noc2CNC(=O)c2cncc(Br)c2)n1 [Example 752] | > 1000
64 | CC(C)NC(=O)c1csc(-c2c(-c3ccc(F)cc3)noc2CNC(=O)c2cc(F)c(F)cc2[N+](=O)[O-])n1 [Example 753] | > 1000
65 | CC(C)NC(=O)c1csc(-c2c(-c3ccc(F)cc3)noc2CNC(=O)Cc2ccc(C(F)(F)F)cc2)n1 [Example 754] | > 1000
66 | CC(C)Cc1ccc(C(C)C(=O)NCc2onc(-c3ccc(F)cc3)c2-c2nc(C(=O)NC(C)C)cs2)cc1 (centres unmarked) [Example 755] | > 1000
67 | CC(C)NC(=O)c1csc(-c2c(-c3ccc(F)cc3)noc2CNC(=O)c2cc(Cl)c(O)c(Cl)c2)n1 [Example 756] | > 1000
68 | CC(C)NC(=O)c1csc(-c2c(-c3ccc(F)cc3)noc2CNC(=O)c2c(F)c(F)c(F)c(F)c2F)n1 [Example 757] | > 1000
